In patent US20100119599A1 (ARCHER PHARMACEUTICALS, INC., priority 2006, published 2010):
Counter-ions that a name gives are not always drawn.

Legend:
[1] = test system: Aβ1-42; assay: Measurement of Aβ1-42 in culture medium of 7W WT APP751 CHO cells by ELISA; type: cell-based, Chinese hamster; details: for activity at 5 µM: Cricetulus griseus, Table 1, 5 μM test compound, CHO cells stably transfected with human APP751, culture medium, ELISA, control DMSO, 0 = no detectable amount, read-out: Aβ1-42 (% of control); for Aβ1-42 (% of control): CHO cells that overexpress APP751, zero = below the detection limit of the assay
[2] = test system: Aβ1-40; assay: Measurement of Aβ1-40 in culture medium of 7W WT APP751 CHO cells by ELISA; type: cell-based, Chinese hamster; details: for activity at 5 µM: Cricetulus griseus, Table 1, 5 μM test compound, CHO cells stably transfected with human APP751, culture medium, ELISA, control DMSO, 0 = no detectable amount; for Aβ1-40 (% of control): CHO cells that overexpress APP751, zero = below the detection limit of the assay
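Also: 5 µM test compound but RI-coded compounds at 10 µM for 24 hours.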

| Structure (SMILES) | activity at 5 µM [1] [%] | activity at 5 µM [2] [%] | Aβ1-42 (% of control) [1] | Aβ1-40 (% of control) [2] |
| --- | --- | --- | --- | --- |
| CCOC(=O)C1=C(C)NC2=C(C(=O)CCC2)C1c1cccnc1 (stereo not drawn) [ST013070, ethyl 2-methyl-5-oxo-4-(3-pyridyl)-1,4,6,7,8-pentahydroquinoline-3-carboxylate] | 82.4 | 34 |  |  |
| CC1=C(C(=O)OC2CCCCC2)C(c2ccccc2C(F)(F)F)C2=C(CCCC2=O)N1 (stereo not drawn) [ST014882, cyclohexyl 2-methyl-5-oxo-4-[2-(trifluoromethyl)phenyl]-1,4,6,7,8-pentahydroquinoline-3-carboxylate] | 91.8 | 39.5 |  |  |
| CCCOC(=O)C1=C(C)NC2=C(C(=O)CC(C)(C)C2)C1c1ccncc1 (stereo not drawn) [ST017249, propyl 2,7,7-trimethyl-5-oxo-4-(4-pyridyl)-1,4,6,7,8-pentahydroquinoline-3-carboxylate] | 75.1 | 67 |  |  |
| CC1=C(C(=O)OCCOC(C)C)C(c2ccc([N+](=O)[O-])cc2)C2=C(CC(C)(C)CC2=O)N1 (stereo not drawn) [ST052272, 2-(methylethoxy)ethyl 2,7,7-trimethyl-4-(4-nitrophenyl)-5-oxo-1,4,6,7,8-pentahydroquinoline-3-carboxylate] | 29.2 | 65.8 |  |  |
| COC(=O)C1=C(C)NC2=C(C(=O)CCC2)C1c1ccc(Br)cc1 (stereo not drawn) [ST028547, methyl 4-(4-bromophenyl)-2-methyl-5-oxo-1,4,6,7,8-pentahydroquinoline-3-carboxylate] | 45.3 | 72.1 |  |  |
| COC(=O)C1=C(C)NC2=C(C(=O)CC(c3ccc(OC)cc3)C2)C1c1cccc(OC)c1OC (stereo not drawn) [ST016999, methyl 4-(2,3-dimethoxyphenyl)-7-(4-methoxyphenyl)-2-methyl-5-oxo-1,4,6,7,8-pentahydroquinoline-3-carboxylate] | 82.8 | 67.3 |  |  |
| CCc1cccc(NC(=O)CSC2=C(C#N)C(c3ccc(-c4cccs4)s3)C(C(=O)Nc3ccccc3)=C(C)N2)c1 (stereo not drawn) [RI_90] |  |  | 42.9 % of control | 63.9 % of control |
| CC1=C(C(=O)OC2CCCCC2)C(c2cccc3ccccc23)C2=C(CCCC2=O)N1 (stereo not drawn) [ST013258, cyclohexyl 2-methyl-4-naphthyl-5-oxo-1,4,6,7,8-pentahydroquinoline-3-carboxylate] | 47 | 0 |  |  |
| CC1=C(C(=O)OCCOc2ccccc2)C(c2ccccc2Br)C2=C(CCCC2=O)N1 (stereo not drawn) [ST052219, 2-phenoxyethyl 4-(2-bromophenyl)-2-methyl-5-oxo-1,4,6,7,8-pentahydroquinoline-3-carboxylate] | 24.7 | 14 |  |  |
| CCSCCOC(=O)C1=C(C)NC2=C(C(=O)CC(c3cccs3)C2)C1c1cccc(Cl)c1 (stereo not drawn) [ST051570, 2-ethylthioethyl 4-(3-chlorophenyl)-2-methyl-5-oxo-7-(2-thienyl)-1,4,6,7,8-pentahydroquinoline-3-carboxylate] | 93.8 | 31.7 |  |  |
| COC(=O)C1=C(C)NC2=C(C(=O)CC(c3ccc(Cl)cc3)C2)C1c1ccccc1F (stereo not drawn) [ST015216, methyl 7-(4-chlorophenyl)-4-(2-fluorophenyl)-2-methyl-5-oxo-1,4,6,7,8-pentahydroquinoline-3-carboxylate] | 93.2 | 68.4 |  |  |
| N#CC1=C(N)N(c2c(F)cccc2F)C2=C(C(=O)CCC2)C1c1ccsc1 (stereo not drawn) [ST051960, 2-amino-1-(2,6-difluorophenyl)-5-oxo-4-(3-thienyl)-1,4,6,7,8-pentahydroquinoline-3-carbonitrile] | 86.3 | 48.8 |  |  |
| CC1=C(C(=O)Nc2ccccc2)C(c2ccsc2)C(C#N)=C(SCC(=O)Nc2cccc(Cl)c2)N1 (stereo not drawn) [RI_70] |  |  | 58.2 % of control | 74.1 % of control |
| CC1=C(C(=O)Nc2ccc(Cl)cc2)C(c2ccsc2)C(C#N)=C(SCC(=O)Nc2ccc(C)c(Cl)c2)N1 (stereo not drawn) [RI_37] |  |  | 75.8 % of control | 64.4 % of control |
| CCOC(=O)C1=C(C)N(C)C(C)=C(C(=O)OCC)C1c1ccccn1 [ST052366, ethyl 5-(ethoxycarbonyl)-1,2,6-trimethyl-4-(2-pyridyl)-1,4-dihydropyridine-3-carboxylate] |  |  | 89.76 % of control | 56.21 % of control |
| CCOC(=O)C1=CN(c2cc(C)ccc2C)C=C(C(=O)OCC)C1c1ccc(OCC)c(OC)c1 [ST052471, ethyl 1-(2,5-dimethylphenyl)-5-(ethoxycarbonyl)-4-(4-ethoxy-3-methoxyphenyl)-1,4-dihydropyridine-3-carboxylate] |  |  | 57.75 % of control | 34.26 % of control |
| CC1=C(C(=O)Nc2ccccc2)C(c2ccncc2)C(C#N)=C(S)N1 (stereo not drawn) [ST007526, (5-cyano-2-methyl-4-(4-pyridyl)-6-sulfanyl(3-1,4-dihydropyridyl))-N-benzamide, 4-methylmorpholine salt] |  |  | 81.23 % of control | 72.5 % of control |

| Structure (SMILES) | activity at 5 µM [1] [%] | activity at 5 µM [2] [%] | Aβ1-42 (% of control) [1] | Aβ1-40 (% of control) [2] |
| --- | --- | --- | --- | --- |
| COC(=O)C1=C(C)NC2=C(C(=O)CCC2)C1c1cc(OC)ccc1OC (stereo not drawn) [ST013073, methyl 4-(2,5-dimethoxyphenyl)-2-methyl-5-oxo-1,4,6,7,8-pentahydroquinoline-3-carboxylate] | 93.2 | 49.5 |  |  |
| COC(=O)C1=C(C)NC2=C(C(=O)CC(C)(C)C2)C1c1cccc(OCc2ccccc2)c1 (stereo not drawn) [ST052360, methyl 2,7,7-trimethyl-5-oxo-4-[3-(phenylmethoxy)phenyl]-1,4,6,7,8-pentahydroquinoline-3-carboxylate] | 61.6 | 55.7 |  |  |
| CC1=C(C(=O)Nc2ccccc2)C(c2ccsc2)C(C#N)=C(SCC(=O)N2CCCCCCCCCCC2)N1 (stereo not drawn) [RI_33] |  |  | 13.7 % of control | 11.9 % of control |
| COC(=O)C1=C(C)NC2=C(C(=O)CCC2)C1c1cccc(C(F)(F)F)c1 (stereo not drawn) [ST052347, methyl 2-methyl-5-oxo-4-[3-(trifluoromethyl)phenyl]-1,4,6,7,8-pentahydroquinoline-3-carboxylate] | 64.3 | 57.2 |  |  |
| CC1=C(C(=O)OCCc2ccccc2)C(c2ccccc2)C2=C(CC(C)(C)CC2=O)N1 (stereo not drawn) [ST015054, 2-phenylethyl 2,7,7-trimethyl-5-oxo-4-phenyl-1,4,6,7,8-pentahydroquinoline-3-carboxylate] | 44.2 | 29.9 |  |  |
| COc1ccccc1C1C(C(=O)OC2CCCCC2)=C(C)NC2=C1C(=O)CCC2 (stereo not drawn) [ST013339, cyclohexyl 4-(2-methoxyphenyl)-2-methyl-5-oxo-1,4,6,7,8-pentahydroquinoline-3-carboxylate] | 6.87 | 43.6 |  |  |
| CCOc1cc(/C=c2\sc3n(c2=O)C(N)=C(C#N)C(c2ccc(O)c(OCC)c2)C=3C#N)ccc1O (stereo not drawn) [ST025033, 5-amino-7-(3-ethoxy-4-hydroxyphenyl)-2-[(3-ethoxy-4-hydroxyphenyl)methylene]-3-oxo-4,7-dihydro-1,3-thiazolidino[3,2-a]pyridine-6,8-dicarbonitrile] |  |  | 57.6 % of control | 53.66 % of control |
| CC1=C(C(=O)OC2CCCCC2)C(c2cccc(Cl)c2Cl)C2=C(CCCC2=O)N1 (stereo not drawn) [ST013188, cyclohexyl 4-(2,3-dichlorophenyl)-2-methyl-5-oxo-1,4,6,7,8-pentahydroquinoline-3-carboxylate] | 47.1 | 0 |  |  |
| COC(=O)C1=C(C)NC2=C(C(=O)CC(c3ccccc3Cl)C2)C1c1cccc([N+](=O)[O-])c1 (stereo not drawn) [ST015070, methyl 7-(2-chlorophenyl)-2-methyl-4-(3-nitrophenyl)-5-oxo-1,4,6,7,8-pentahydroquinoline-3-carboxylate] | 97 | 65.4 |  |  |
| CCOC(=O)C1=C(C)NC2=C(C(=O)CCC2)C1c1ccc(OCc2ccccc2Cl)c(OC)c1 (stereo not drawn) [ST028591, ethyl 4-{4-[(2-chlorophenyl)methoxy]-3-methoxyphenyl}-2-methyl-5-oxo-1,4,6,7,8-pentahydroquinoline-3-carboxylate] | 69.6 | 98.3 |  |  |
| CC1=C(C(=O)OCCOc2ccccc2)C(c2ccc(Cl)cc2Cl)C2=C(CC(C)(C)CC2=O)N1 (stereo not drawn) [ST015067, 2-phenoxyethyl 4-(2,4-dichlorophenyl)-2,7,7-trimethyl-5-oxo-1,4,6,7,8-pentahydroquinoline-3-carboxylate] | 43.9 | 4.89 |  |  |
| COc1ccc(COC(=O)C2=C(C)NC3=C(C(=O)CCC3)C2c2cccc(F)c2)cc1 (stereo not drawn) [ST016959, (4-methoxyphenyl)methyl 4-(3-fluorophenyl)-2-methyl-5-oxo-1,4,6,7,8-pentahydroquinoline-3-carboxylate] | 57.2 | 28.8 |  |  |
| C=CCOC(=O)C1=C(C)NC(S)=C(C#N)C1c1cccnc1 (stereo not drawn) [ST011596, prop-2-enyl 5-cyano-2-methyl-4-(3-pyridyl)-6-sulfanyl-1,4-dihydropyridine-3-carboxylate] |  |  | 86.14 % of control | 66.77 % of control |
| COc1cc(Br)c(C2C(C#N)=C(C)NC3=C2C(=O)CC(c2ccc(Cl)cc2)C3)cc1OC (stereo not drawn) [ST017045, 4-(2-bromo-4,5-dimethoxyphenyl)-7-(4-chlorophenyl)-2-methyl-5-oxo-1,4,6,7,8-pentahydroquinoline-3-carbonitrile] | 46 | 42.6 |  |  |
| CC1=C(C(=O)Nc2ccccc2)C(c2cccs2)C(C#N)=C(SCC(=O)Nc2ccc(C(C)C)cc2)N1 (stereo not drawn) [RI_47] |  |  | 28.1 % of control | 30.5 % of control |
| C=CCOC(=O)C1=C(C)NC2=C(C(=O)CCC2)C1c1cccc(OC)c1 (stereo not drawn) [ST013199, prop-2-enyl 4-(3-methoxyphenyl)-2-methyl-5-oxo-1,4,6,7,8-pentahydroquinoline-3-carboxylate] | 86.7 | 68.5 |  |  |
